For 21 compounds, IC50 results are on record in patent US10414763B2 (CANCER RESEARCH TECHNOLOGY LIMITED, priority 2014, dated 2019).

In this experiment the target is T1, full-length human PKCι (Homo sapiens, UniProt P41743).
T1 construct: Recombinant, full-length human PKCι expressed in Sf21 insect cells is also commercially available; purchased EMD Millipore; host or cells: Sf21 insect cells (baculovirus)
T1 sequence (P41743 1-596): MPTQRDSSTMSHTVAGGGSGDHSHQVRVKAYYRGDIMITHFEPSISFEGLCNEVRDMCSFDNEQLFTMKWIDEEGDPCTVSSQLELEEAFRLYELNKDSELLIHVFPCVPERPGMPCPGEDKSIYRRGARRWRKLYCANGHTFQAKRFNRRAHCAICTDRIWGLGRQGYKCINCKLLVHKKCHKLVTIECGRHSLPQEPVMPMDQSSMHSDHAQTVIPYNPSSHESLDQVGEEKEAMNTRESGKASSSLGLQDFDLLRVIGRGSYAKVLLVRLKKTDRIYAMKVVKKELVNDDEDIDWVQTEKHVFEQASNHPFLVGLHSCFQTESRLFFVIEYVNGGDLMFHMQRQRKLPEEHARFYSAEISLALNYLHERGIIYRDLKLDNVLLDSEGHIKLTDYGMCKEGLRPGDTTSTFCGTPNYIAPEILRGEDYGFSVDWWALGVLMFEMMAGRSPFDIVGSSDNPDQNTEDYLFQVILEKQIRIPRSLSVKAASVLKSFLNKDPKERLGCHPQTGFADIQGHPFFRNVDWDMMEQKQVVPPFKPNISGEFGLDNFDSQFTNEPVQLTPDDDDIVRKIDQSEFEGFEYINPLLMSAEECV
The experiment can be described thus: PKCι IC50 IMAP fluorescence polarisation assay, full-length enzyme, 150 μM ATP. Format: biochemical. To be noted: read-out: IC50 in IMAP assay against full length PKCi at 150 μM ATP. The method in brief:
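IMAP fluorescence polarisation kinase assay: 15 pM baculovirus-expressed human PKCiota with 100 nM FAM-pseudosubstrate peptide and 150 μM ATP, 1 h at 25 °C. IMAP detection reagent then 2 h at 25 °C before FP measurement. Inhibition referenced to no-compound and no-enzyme controls for IC50 fitting.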
For the compound `O[C@H]1CNCC[C@H]1Nc1nc(-c2ccnc3[nH]c4ccccc4c23)nc2cncc(C3CCC3)c12` (racemic) [Example 344, rac-(3S,4R)-4-[5-Cyclobutyl-2-(9H-pyrido[2,3-b]indol-4-yl)-pyrido[3,4-d]pyrimidin-4-ylamino]-piperidin-3-ol], the IC50 was below 100 nM.

As for `COc1nc(-c2cc3c(-c4nc(N5CCNCC5)c5c(C6CC6)cncc5n4)ccnc3[nH]2)cs1` [Example 112, 5-Cyclopropyl-2-[2-(2-methoxy-thiazol-4-yl)-1H-pyrrolo[2,3-b]pyridin-4-yl]-4-piperazin-1-yl-pyrido[3,4-d] pyrimidine], the IC50 is below 100 nM.

For `CC1(C)CNCCC1Nc1nc(-c2ccnc(Nc3ccc4ccccc4n3)c2)nc2cncc(C3CCC3)c12` (stereo not drawn) [Example 86, {5-Cyclobutyl-2-[2-(quinolin-2-ylamino)-pyridin-4-yl]-pyrido[3,4-d]pyrimidin-4-yl}-(3,3-dimethyl-piperidin-4-yl)-amine], the IC50 was below 100 nM. For the compound `Cn1nc(Nc2cc(-c3nc(N[C@H]4CCNCC4(C)C)c4c(C5CCC5)cncc4n3)ccn2)c2ccccc21` [Example 284, {5-Cyclobutyl-2-[2-(1-methyl-1H-indazol-3-ylamino)-pyridin-4-yl]-pyrido[3,4-d]pyrimidin-4-yl}-((S)-3,3-dimethyl-piperidin-4-yl)-amine], the IC50 is below 100 nM.

Regarding `Fc1ccc(F)c(Nc2cc(-c3nc(N4CCOC5CNCC54)c4c(C5CC5)cncc4n3)ccn2)n1` (stereo not drawn) [Example 203, {4-[5-Cyclopropyl-4-(hexahydro-pyrrolo[3,4-b][1,4]oxazin-4-yl)-pyrido[3,4-d]pyrimidin-2-yl]-pyridin-2-yl}-(3,6-difluoro-pyridin-2-yl)-amine], the concentration for half-maximal inhibition (IC50) is 100 to 1000 nM.

On to `Cc1cc2c(-c3nc(N4CC[C@H]5NCC[C@H]54)c4c(C5CCC5)cncc4n3)ccnc2[nH]1` (racemic) [Example 84, (±)-5-Cyclobutyl-4-(3,6-cis)-hexahydro-pyrrolo[3,2-b]pyrrol-1-yl-2-(2-methyl-1H-pyrrolo[2,3-b]pyridin-4-yl)-pyrido[3,4-d]pyrimidine], for which the IC50 was below 100 nM.

Turning to `O[C@H]1CNCC[C@H]1Nc1nc(-c2ccnc(Nc3ncc(F)cc3F)c2)nc2cncc(C3CC3)c12` (racemic) [Example 306, rac-(3S,4R)-4-{5-Cyclopropyl-2-[2-(3,5-difluoro-pyridin-2-ylamino)-pyridin-4-yl]-pyrido[3,4-d]pyrimidin-4-ylamino}-piperidin-3-ol], the IC50 is 100 to 1000 nM. On to `Fc1ccc(F)c(Nc2cc(-c3nc(N4CCOC5CNCC54)c4c(C5CCC5)cncc4n3)ccn2)n1` (stereo not drawn) [Example 256, {4-[5-Cyclobutyl-4-(hexahydro-pyrrolo[3,4-b]-1,4-oxazin-4-yl)-pyrido[3,4-d]pyrimidin-2-yl]-pyridin-2-yl}-(3,6-difluoro-pyridin-2-yl)-amine], for which the IC50 is below 100 nM.

Turning to `CN(c1nc(-c2ccnc3[nH]c(-c4ncccc4F)cc23)nc2cncc(C3CC3)c12)[C@H]1CCNCC1(C)C` [Example 384, {5-Cyclopropyl-2-[2-(3-fluoro-pyridin-2-yl)-1H-pyrrolo[2,3-b]pyridin-4-yl]-pyrido[3,4-d]pyrimidin-4-yl}-((S)-3,3-dimethyl-piperidin-4-yl)-methyl-amine], the IC50 is below 100 nM. For `O[C@@H]1CNCC[C@H]1Nc1nc(-c2ccnc(Nc3nc(F)cc(F)c3F)c2)nc2cncc(C3CC3)c12` (racemic) [Example 310, rac-(3R,4R)-4-{5-Cyclopropyl-2-[2-(3,4,6-trifluoro-pyridin-2-ylamino)-pyridin-4-yl]-pyrido[3,4-d]pyrimidin-4-ylamino}-piperidin-3-ol], the IC50 was below 100 nM.

As for `Cc1cc2c(-c3nc(N4CCOC5CNCC54)c4c(C5CCC5)cncc4n3)ccnc2[nH]1` (stereo not drawn) [Example 257, 5-Cyclobutyl-4-(hexahydro-pyrrolo[3,4-b]-1,4-oxazin-4-yl)-2-(2-methyl-1H-pyrrolo[2,3-b]pyridin-4-yl)-pyrido[3,4-d]pyrimidine], the IC50 was below 100 nM.

With `O=C1NC2CC(Nc3nc(-c4ccnc5[nH]c6ccccc6c45)nc4cncc(C5CCC5)c34)CC2O1` (stereo not drawn) [Example 376, 5-[5-Cyclobutyl-2-(9H-pyrido[2,3-b]indol-4-yl)-pyrido[3,4-d]pyrimidin-4-ylamino]-hexahydro-cyclopentoxazol-2-one], the IC50 was 1000 to 10000 nM. As for `CC1(C)CNCCC1Nc1nc(-c2ccnc3[nH]c(-c4cc(Cl)ccc4Cl)cc23)nc2cncc(C3CC3)c12` (stereo in doubt) [Example 353, {5-Cyclopropyl-2-[2-(2,5-dichloro-phenyl)-1H-pyrrolo[2,3-b]pyridin-4-yl]-pyrido[3,4-d]pyrimidin-4-yl}-((S)-3,3-dimethyl-piperidin-4-yl)-amine], the figure is below 100 nM; as for `Fc1cccc(Nc2cc(-c3nc(N4CCOC5CNCC54)c4c(C5CC5)cncc4n3)ccn2)n1` (stereo not drawn) [Example 201, {4-[5-Cyclopropyl-4-(hexahydro-pyrrolo[3,4-b][1,4]oxazin-4-yl)-pyrido[3,4-d]pyrimidin-2-yl]-pyridin-2-yl}-(6-fluoro-pyridin-2-yl)-amine], below 100 nM. Consider `OC1CNCCC(Nc2nc(-c3ccnc4[nH]c5ccccc5c34)nc3cncc(C4CCC4)c23)C1` (stereo not drawn) [Example 122, 5-[5-Cyclobutyl-2-(9H-pyrido[2,3-b]indol-4-yl)-pyrido[3,4-d]pyrimidin-4-ylamino]-azepan-3-ol], for which the IC50 was below 100 nM. Consider `CC1(C)CNCC[C@@H]1Nc1nc(-c2ccnc3[nH]c(C(=O)N4CCC4)cc23)nc2cncc(C3CC3)c12` [Example 366, Azetidin-1-yl-[4-[5-cyclopropyl-4-[[(4S)-3,3-dimethyl-4-piperidyl]amino]pyrido [3,4-d]pyrimidin-2-yl]-1H-pyrrolo[2,3-b]pyridin-2-yl]methanone], for which the IC50 is below 100 nM. Regarding `COc1cncc2nc(-c3ccnc(Nc4ncccc4F)c3)nc(N[C@H]3CCNCC3(C)C)c12` [Example 269, N-[(4S)-3,3-dimethyl-4-piperidyl]-2-[2-[(3-fluoro-2-pyridyl)amino]-4-pyridyl]-5-methoxy-pyrido[3,4-d]pyrimidin-4-amine], the IC50 fell in the range of 100 to 1000 nM. Consider `OC1CNCCC(Nc2nc(-c3ccnc4[nH]c5ccccc5c34)nc3cncc(C(F)(F)F)c23)C1` (stereo not drawn) [Example 219, 5-[2-(9H-Pyrido[2,3-b]indol-4-yl)-5-trifluoromethyl-pyrido[3,4-d]pyrimidin-4-ylamino]-azepan-3-ol], for which the IC50 was below 100 nM.

With `CN(c1nc(-c2ccnc3[nH]c4ccccc4c23)nc2cncc(C3CCC3)c12)C1CC(N)C1` (stereo not drawn) [Example 75, N-[5-Cyclobutyl-2-(9H-pyrido[2,3-b]indol-4-yl)-pyrido[3,4-d]pyrimidin-4-yl]-N-methyl-cyclobutane-1,3-diamine], the IC50 was below 100 nM. As for `COc1cncc2nc(-c3ccnc(Nc4nc(F)ccc4F)c3)nc(NC3CCNCC3(C)C)c12` (racemic) [Example 261, rac-2-[2-[(3,6-difluoro-2-pyridyl)amino]-4-pyridyl]-N-(3,3-dimethyl-4-piperidyl)-5-methoxy-pyrido[3,4-d]pyrimidin-4-amine], the figure is below 100 nM; as for `Fc1ccc(F)c(Nc2cc(-c3nc(N4CCC5NCCC54)c4c(C5CCC5)cncc4n3)ccn2)n1` (stereo not drawn) [Example 97, {4-[5-Cyclobutyl-4-(hexahydro-pyrrolo [3,2-b]pyrrol-1-yl)-pyrido[3,4-d]pyrimidin-2-yl]-pyridin-2-yl}-(3,6-difluoro-pyridin-2-yl)-amine], below 100 nM.
